In PubChem BioAssay AID2511 (Broad Institute, 2010):

Test system: human washed platelets, SFLLRN-induced P-selectin, flow cytometry
Assay: inhibitors of SFLLRN-triggered platelet P-selectin exposure, dose response, cell-based, fluorescence, flow cytometry, human platelets (AID 2511)
Settings: retest run 2

SMILES	EC50 [µM]
CCCC(=O)Nc1cccc(NC(=O)c2ccccc2Br)c1	< 1
Cc1ccc(-n2c(N)c(C#N)c(-c3ccccc3)c(C#N)c2=O)cc1	< 3
CCC(=O)Nc1cccc(NC(=O)c2ccccc2Br)c1	< 3

Now from value to compound:

EC50 [µM]	SMILES
< 1	O=C(Nc1cccc(NC(=O)c2ccccc2Cl)c1)c1ccco1
< 10	CCCCC(=O)Nc1cccc(NC(=O)c2ccccc2Br)c1
